# Measurements published in patent US20220152031A1, “PYRIDAZINONES AND METHODS OF USE THEREOF” (Goldfinch Bio, Inc., priority 2019, published 2022).
# Target: T1, TRPC5 (Homo sapiens, UniProt Q9UL62)
# T1 construct: expressed in transfected cells
# T1 sequence (Q9UL62 1-973): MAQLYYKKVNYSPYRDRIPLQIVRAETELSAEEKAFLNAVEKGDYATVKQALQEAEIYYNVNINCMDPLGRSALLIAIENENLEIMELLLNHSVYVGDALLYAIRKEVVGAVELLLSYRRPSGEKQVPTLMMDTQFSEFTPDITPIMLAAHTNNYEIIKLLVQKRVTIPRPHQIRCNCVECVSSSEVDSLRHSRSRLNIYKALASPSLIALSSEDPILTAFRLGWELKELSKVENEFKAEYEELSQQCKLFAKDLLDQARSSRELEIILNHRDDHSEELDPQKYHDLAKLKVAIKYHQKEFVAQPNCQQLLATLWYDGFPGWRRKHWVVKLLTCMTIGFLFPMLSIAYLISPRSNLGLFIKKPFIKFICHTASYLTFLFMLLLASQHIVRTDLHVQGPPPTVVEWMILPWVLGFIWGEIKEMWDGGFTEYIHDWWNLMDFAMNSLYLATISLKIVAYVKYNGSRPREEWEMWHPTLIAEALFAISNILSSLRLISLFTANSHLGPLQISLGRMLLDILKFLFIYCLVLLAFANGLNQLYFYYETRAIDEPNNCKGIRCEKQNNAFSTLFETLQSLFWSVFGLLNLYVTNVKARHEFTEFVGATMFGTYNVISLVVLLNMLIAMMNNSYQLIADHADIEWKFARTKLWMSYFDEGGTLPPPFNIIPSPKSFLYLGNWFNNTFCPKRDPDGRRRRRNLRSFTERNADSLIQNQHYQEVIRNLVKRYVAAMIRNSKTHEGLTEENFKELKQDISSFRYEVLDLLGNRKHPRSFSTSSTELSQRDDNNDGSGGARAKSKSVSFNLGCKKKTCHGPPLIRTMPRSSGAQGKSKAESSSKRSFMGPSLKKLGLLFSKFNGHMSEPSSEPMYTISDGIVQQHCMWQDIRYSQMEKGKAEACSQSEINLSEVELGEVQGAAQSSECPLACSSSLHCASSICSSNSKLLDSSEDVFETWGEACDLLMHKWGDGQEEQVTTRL
# Test: TRPC5 activity assay (FLIPR calcium fluorescence, HEK-TREx hTRPC5 cells)
# Assay type: cell-based
# Details: Table 6, HEK-TREx hTRPC5; read-out: hTRPC5-FLIPR IC50
# Experimental: ICLN-1633 cells (HEK-TREx hTRPC5) expressing TRPC5 were generated as follows. Commercially available HekTrex-293 cells were seeded at 0.7×10^6 cells/well in a 1×6-well plate 24 hrs prior to transfection using 2 mL cell growth media containing no antibiotics (lx DMEM/high glucose (Hyclone #SH30022.02); 10% fetal bovine serum (Sigma) 2 mM sodium pyruvate, 10 mM HEPES). […] On day 2, 2 μg of plasmid DNA plus 6 μl of Xtreme-GENE HP reagent in Optimem (200 μl total volume) was prepared and incubated for 15 min at room temperature. This plasmid solution was then gently overlayed dropwise onto each well and the plate was gently swirled to mix complex with the media for approximately 30 seconds. Transfected cells were incubated at 37° C. in a 10% CO2 incubator for 24 hrs. The transfected cells were harvested and transferred into 2×150 mm dishes containing cell growth media with no antibiotics at 37° C.
# The next day selection was initiated to generate a stable pool by adding cell growth media containing 150 μg/mL Hygromycin and 5 μg/mL Blasticidin and cells were allowed to grow. Media with the selection agent was changed every 1-2 days as needed to remove dead cells. After 7 days, the hygromycin concentration was reduced to 75 μg/mL and cells growth was allowed to continue.
# Single clones were selected as follows. The stable pool was diluted to 10 cells/mL and seeded (100 μl/well) into 24×96 well plates (˜1 cell/well) and allowed to grow for 7 days in cell growth media. Fresh media (100 μl) was added and the cells allowed to grow for another 1-2 weeks and then stored frozen or used immediately.
# 10-point dose response curves were generated using the Echo-550 acoustic dispenser. Compound source plates were made by serially diluting compound stocks to create 10 mM, 1 mM, and 0.1 mM solutions in DMSO into Echo certified LDV plates. The Echo then serially spotted 100% DMSO stock solutions into source dose response plates to generate a 4-fold dilution scheme. 100% DMSO was added to the spotted dose response plates to bring the final volume to 5 μl. 300 nl of the dose response stock plate was then spotted into pre-incubation and stimulation assay plates. 50 μl of pre-incubation buffer and 100 μl of stimulation buffer was then added to the plates resulting in a final assay test concentration range of 30 μM to 0.0001 μM with a final DMSO concentration of 0.3%.
# Human ICLN-1633 cells expressing were plated onto 384 well, black PDL-coated microplates and maintained in TRPC5 growth media the day prior to use for experiments. TRPC5 expression was induced by the application of 1 μg/mL tetracycline at the time of plating. […] Cells are incubated at room temperature, protected from light, for 60-90 minutes. After the incubation period, the dye is removed and replaced with 10 μl of EBSS. Cell, pre-incubation and stimulation plates are loaded onto the FLIPR-II and the assay is initiated. The FLIPR measures a 10 second baseline and then adds 10 μl of 2× compounds (or controls). Changes in fluorescence are monitored for an additional 5 minutes. After the 5 minute pre-incubation, 20 μl of 2× Riluzole (with 1× compound or controls) is added to the cell plate. The final Riluzole stimulation concentration in the assay is 30 μM. After the Riluzole addition, changes in fluorescence are monitored for an additional 5 minutes.
# Compound modulation of TRPC5 calcium response was determined as follows. After the Englerin A, fluorescence was monitored for a 5-minute period. The maximum relative fluorescence response (minus the control response of 1 μM of an internal control compound known to maximally block TRPC5 calcium response, the “REF INHIB” in the formula below) was captured and exported from the FLIPR.
# Compound effect is calculated as % inhibition using the following formula: […]
# wherein “RFU” is the relative fluorescent units.
row,IC50 [nM],Compound
1,0.01 to 1000,"CC(c1ccc(F)cc1C(F)(F)F)N1CCN(c2cn[nH]c(=O)c2Cl)CC1=O (single isomer, unassigned) [MF]"
2,0.01 to 1000,"CCc1ncccc1N(CC)C1CCN(c2cn[nH]c(=O)c2Cl)CC1 [LW, 4-chloro-5-[4-[ethyl(2-ethylpyridin-3-yl)amino]piperidin-1-yl]-2,3-dihydropyridazin-3-one]"
3,0.01 to 1000,"CCc1ncccc1[C@H](C)N1CCN(c2cn[nH]c(=O)c2Cl)CC1 [LY, 4-chloro-5-[4-[(1S)-1-(2-ethylpyridin-3-yl)ethyl]piperazin-1-yl]-2,3-dihydropyridazin-3-one]"

# Same assay, conditions: Table 7, HEK-TREx hTRPC5; read-out: TRPC5-FLIPR IC50
row,IC50 [nM],Compound
1,0.01 to 1000,"C[C@@H]1Cc2c(nnn2[C@H](C)c2ccccc2C(F)(F)F)CN1c1cn[nH]c(=O)c1Cl [MX, 4-chloro-5-[(6R)-6-methyl-1-[(1R)-1-[2-(trifluoromethyl)phenyl]ethyl]-1H,4H,5H,6H,7H-[1,2,3]triazolo[4,5-c]pyridin-5-yl]-2,3-dihydropyridazin-3-one]"
2,0.01 to 1000,CN1CCN(C(=O)c2nn(Cc3ccccc3C(F)F)c3c2CN(c2cn[nH]c(=O)c2Cl)CC3)CC1 [OM]
3,0.01 to 1000,"NC(=O)c1nn(Cc2ccccc2C(F)(F)F)c2c1CN(c1cn[nH]c(=O)c1Cl)CC2 [OP, 5-(5-Chloro-6-oxo-1,6-dihydropyridazin-4-yl)-1-[[2-(trifluoromethyl)phenyl]methyl]-1H,4H,5H,6H,7H-pyrazolo[4,3-c]pyridine-3-carboxamide]"
4,0.01 to 1000,"CN1CCN(Cc2nn(Cc3ccccc3C(F)F)c3c2CN(c2cn[nH]c(=O)c2Cl)CC3)CC1 [OU, 4-Chloro-5-(1-[[2-(difluoromethyl)phenyl]methyl]-3-[(4-methylpiperazin-1-yl)methyl]-1H,4H,5H,6H,7H-pyrazolo[4,3-c]pyridin-5-yl)-2,3-dihydropyridazin-3-one]"
5,0.01 to 1000,CN(C)C(=O)c1nc2c(n1Cc1ccccc1C(F)(F)F)CCN(c1cn[nH]c(=O)c1Cl)C2 [PW]
6,0.01 to 1000,CN(c1ncc2c(n1)CN(c1cn[nH]c(=O)c1Cl)C2)c1ccccc1C(F)(F)F [QM]
